According to patent US4609645A, “Macrolide antibiotics, pharmaceutical compositions and methods of use” (priority 1983, dated 1986):
Converted amounts (≈) assume the structure as drawn. Read-outs that look alike come from different tables or passages of the source.

Key:
Solubility = format: physicochemical
[1] = test system: Mycoplasma gallisepticum KP-13; experiment: Activity against Mycoplasma, paper disk inhibition zone; format: cell-based; conditions: paper disk 8 mm in diameter, 37° C., about 48 hours
Protocol: (§1) In addition, the activity of the PTL-448 derivatives against Mycoplasma was examined by conventional methods (paper disk 8 mm in diameter, 37° C., about 48 hours).

[2] = test system: Acholeplasma laidlawii PG-8; experiment: as above; format: cell-based; conditions: paper disk 8 mm in diameter, 37° C., about 48 hours
Protocol: as §1

Toxicity tests in mice = format: in vivo; conditions: 100 mg/kg i.p., after 1 month of treatment
[3] = test system: Staphylococcus aureus ATCC 6538P; experiment: Minimum inhibitory concentration (MIC), antimicrobial activity; format: cell-based; conditions: ATCC6538P
Protocol: (§2) The antimicrobial activity of the PTL-448 derivatives of the invention is illustrated in Table 3, which is a summary of the results of a number of tests carried out to determine minimum inhibitory concentrations (MIC) of the derivatives against a number of typical bacteria. Comparative results for Spiramycin I (SPM I) and III (SPM III) are also given. Tests were carried out using heart infusion agar media (pH 7 at 37° C., after about 20 hours).

[4] = test system: Klebsiella pneumoniae ATCC 10031; experiment: as above; format: cell-based
Protocol: as §2

[5] = test system: Micrococcus luteus ATCC 9341; experiment: as above; format: cell-based
Protocol: as §2

[6] = test system: Streptococcus pneumoniae III KB 165; experiment: as above; format: cell-based
Protocol: as §2

[7] = test system: Bacillus subtilis PCI 219; experiment: as above; format: cell-based
Protocol: as §2

S. aureus FDA 209P = experiment: as above; format: cell-based; conditions: Staphylococcus aureus, FDA209P
Protocol: as §2

E. coli N-33 = experiment: as above; format: cell-based; conditions: Escherichia coli
Protocol: as §2

B. cereus IFO 3001 = experiment: as above; format: cell-based; conditions: Bacillus cereus
Protocol: as §2

[8] = test system: Salmonella typhimurium KB 20; experiment: as above; format: cell-based; conditions: Salmonella enterica
Protocol: as §2

S. pyogenes KB 166 = experiment: as above; format: cell-based; conditions: Streptococcus pyogenes, KB166, heart infusion agar, pH 7, 37° C., about 20 hours
Protocol: as §2

[9] = methanol, ethanol, acetone, ethyl acetate, chloroform, benzene
[10] = Staphylococcus aureus ATCC 6538P, heart infusion agar, pH 7, 37° C., about 20 hours, read-out: MIC
[11] = ATCC10031, Klebsiella pneumoniae ATCC 10031, heart infusion agar, pH 7, 37° C., about 20 hours, read-out: MIC
[12] = ATCC9341, Micrococcus luteus ATCC 9341, heart infusion agar, pH 7, 37° C., about 20 hours, read-out: MIC
[13] = IIIKB165, Streptococcus pneumoniae III KB 165, heart infusion agar, pH 7, 37° C., about 20 hours, read-out: MIC
[14] = PCI219, Bacillus subtilis PCI 219, heart infusion agar, pH 7, 37° C., about 20 hours, read-out: MIC
[15] = S. aureus FDA 209P, heart infusion agar, pH 7, 37° C., about 20 hours, read-out: MIC
[16] = N33, E. coli N-33, heart infusion agar, pH 7, 37° C., about 20 hours, read-out: MIC
[17] = IFO3001, B. cereus IFO 3001, heart infusion agar, pH 7, 37° C., about 20 hours, read-out: MIC
[18] = Salmonella typhimurium KB 20, heart infusion agar, pH 7, 37° C., about 20 hours, read-out: MIC

Structure (SMILES)	Solubility (Solubility; ether, n-hexane)	Solubility (Solubility; [9])	Solubility (Solubility; water)	Diameter of Inhibition Zone [1] [mm]	Diameter of Inhibition Zone [2] [mm]	fatalities (Toxicity tests in mice)	MIC [3, 10] [µg/mL]	MIC [4, 11] [µg/mL]	MIC [5, 12] [µg/mL]	MIC [6, 13] [µg/mL]	MIC [7, 14] [µg/mL]	MIC (S. aureus FDA 209P; [15]) [µg/mL]	MIC (E. coli N-33; [16]) [µg/mL]	MIC (B. cereus IFO 3001; [17]) [µg/mL]	MIC [8, 18] [µg/mL]	MIC (S. pyogenes KB 166) [µg/mL]	further results
CCC1OC(=O)CC(OC(C)=O)C(C)C(OC2OC(C)C(OC3CC(C)(O)C(O)C(C)O3)C(N(C)C)C2O)C(CC=O)CC(C)C(OC2CCC(N(C)C)C(C)O2)C=CC(C)=CC1C (stereo not shown) [PTL-448-A]	Slightly soluble	Soluble	Insoluble	29.2	32.6	no fatalities occurred	6.25 (≈ 6.86 µM)	> 100	0.4 (≈ 0.439 µM)	0.4 (≈ 0.439 µM)	1.56 (≈ 1.71 µM)	6.25 (≈ 6.86 µM)	1.56 (≈ 1.71 µM)	3.12 (≈ 3.42 µM)	> 100	–	–
CCC1OC(=O)CC(O)C(C)C(OC2OC(C)C(OC3CC(C)(O)C(O)C(C)O3)C(N(C)C)C2O)C(CC=O)CC(C)C(OC2CCC(N(C)C)C(C)O2)C=CC(C)=CC1C (stereo not shown) [PTL-448-B]	Slightly soluble	Soluble	Insoluble	30.1	31.4	no fatalities occurred	3.12 (≈ 3.59 µM)	> 100	0.4 (≈ 0.46 µM)	0.4 (≈ 0.46 µM)	0.78 (≈ 0.897 µM)	3.12 (≈ 3.59 µM)	0.78 (≈ 0.897 µM)	1.56 (≈ 1.79 µM)	> 100	0.4 (≈ 0.46 µM)	–
CCC1OC(=O)CC(OC(C)=O)C(C)C(OC2OC(C)C(O)C(N(C)C)C2O)C(CC=O)CC(C)C(OC2CCC(N(C)C)C(C)O2)C=CC(C)=CC1C (stereo not shown) [PTL-448-C]	Slightly soluble	Soluble	Insoluble	–	33.1	no fatalities occurred	1.56 (≈ 2.03 µM)	50 (≈ 65.2 µM)	0.4 (≈ 0.522 µM)	0.2 (≈ 0.261 µM)	1.56 (≈ 2.03 µM)	1.56 (≈ 2.03 µM)	0.4 (≈ 0.522 µM)	1.56 (≈ 2.03 µM)	50 (≈ 65.2 µM)	0.4 (≈ 0.522 µM)	–
CCC1OC(=O)CC(O)C(C)C(OC2OC(C)C(O)C(N(C)C)C2O)C(CC=O)CC(C)C(OC2CCC(N(C)C)C(C)O2)C=CC(C)=CC1C (stereo not shown) [PTL-448-D]	Slightly soluble	Soluble	Insoluble	–	32.0	no fatalities occurred	1.56 (≈ 2.15 µM)	25 (≈ 34.5 µM)	0.2 (≈ 0.276 µM)	0.2 (≈ 0.276 µM)	1.56 (≈ 2.15 µM)	1.56 (≈ 2.15 µM)	0.2 (≈ 0.276 µM)	1.56 (≈ 2.15 µM)	25 (≈ 34.5 µM)	0.4 (≈ 0.552 µM)	–
COC1C(O)CC(=O)OC(C)CC=CC=CC(OC2CCC(N(C)C)C(C)O2)C(C)CC(CC=O)C1OC1OC(C)C(OC2CC(C)(O)C(O)C(C)O2)C(N(C)C)C1O (stereo not shown) [SPM I, Spiramycin I, reference compound]	–	–	–	–	–	–	–	–	–	–	–	–	–	–	–	–	MIC ([3]; Staphylococcus aureus, 20 h, pH 7): 6.25 µg/mL (≈ 7.41 µM); MIC ([4]; Klebsiella pneumoniae, ATCC10031, 20 h, pH 7): > 100 µg/mL; MIC ([5]; Micrococcus luteus, ATCC9341, 20 h, pH 7): 0.4 µg/mL (≈ 0.474 µM); MIC ([6]; Streptococcus pneumoniae, IIIKB165, 20 h, pH 7): 0.4 µg/mL (≈ 0.474 µM); MIC ([7]; Bacillus subtilis, PCI219, 20 h, pH 7): 1.56 µg/mL (≈ 1.85 µM); MIC (S. aureus FDA 209P; 20 h, pH 7): 6.25 µg/mL (≈ 7.41 µM); MIC (E. coli N-33; N33, 20 h, pH 7): 1.56 µg/mL (≈ 1.85 µM); MIC (B. cereus IFO 3001; IFO3001, 20 h, pH 7): 3.12 µg/mL (≈ 3.7 µM); MIC ([8]; TYPHIMURIUM, 20 h, pH 7): > 100 µg/mL
CCC(=O)OC1CC(=O)OC(C)CC=CC=CC(OC2CCC(N(C)C)C(C)O2)C(C)CC(CC=O)C(OC2OC(C)C(OC3CC(C)(O)C(O)C(C)O3)C(N(C)C)C2O)C1OC (stereo not shown) [SPM III, Spiramycin III, reference compound]	–	–	–	–	–	–	12.5 (≈ 13.9 µM)	> 100	0.4 (≈ 0.445 µM)	0.4 (≈ 0.445 µM)	1.56 (≈ 1.74 µM)	12.5 (≈ 13.9 µM)	1.56 (≈ 1.74 µM)	3.12 (≈ 3.47 µM)	> 100	–	–
